Experimental findings from US20080269279A1, “Substituted furo[2,3-B] pyridine derivatives as cannabinoid-1 receptor modulators” (priority 2007, published 2008) are described below.

Structures can show the parent of a compound that is named as a salt.

This assay has as its system human GABA α1β3β2 receptors. The assay can be described thus: GABAa, 3H-muscimol binding assay. Particulars: activity at 10 μM as percentage of activity of control compound P18 at 10 μM (increase of 3H-muscimol binding). The protocol:
Membranes from recombinant Ltk cells expressing human GABA α1β3β2 receptors were suspended in an ice-cold solution of 100 mM KCl, 10 mM KH2PO4, adjusted to pH=7.4 with 1 M KOH. Tritiated muscimol (PerkinElmer, Wellesley, Mass.) at a concentration of 2 nM, and serial five-fold dilutions of test compounds at 10 μM, 2.0 μM, 400 nM, 80 nM, 16 nM, 3.2 nM, 0.64 nM and 0.13 nM were mixed in 96-well plates containing 200 μL of membrane suspension. Cold muscimol and compound P18 were used as negative and positive controls respectively. The assay mixture was incubated at 4° C. for 2 hours, then harvested on GF/C filter plates and washed with ice-cold 50 mM Tris-Ci buffer. The filter plates were dried and counted in a Wallac MicroBeta® Trilux detector (Model 1450-030; PerkinElmer, Wellesley, Mass.), and the data were downloaded and analyzed using Prism 3.0. The activity of compound P18 at 10 μM was used as reference for the test compounds, and it was expressed as increasing ^3H-muscimol binding by 100%, whereas cold muscimol at 2 μM antagonized ^3H-muscimol binding by 100%. The tested compound's activity at 10 μM was expressed as a percentage of compound P18's activity at 10 μM.
As a reference, the parent compound (the compound not substituted with a R^4 heteroaryl, such as pyrazole or 1,2,4-oxadiazole, as indicated below) is also shown with its Gamma Amino Butyric Acid (GABA) Receptor activity. […] As a result, the compounds of the present invention in which R^4 is a heteroaryl, such as pyrazole or 1,2,4-oxadiazole, have the unexpected benefits of minimizing off target activity at the GABA receptor.
Note: % GABA is defined as the GABA activity of the indicated compound expressed as a percentage of the activity of control compound P18. NA=data not available.
For `CC(=O)Nc1c(C(=O)C(C)(C)C)oc2nc(-c3ccc(-c4cn[nH]c4)cc3Cl)c(-c3ccc(Cl)cc3)cc12` [Example 4, N-[5-(4-Chlorophenyl)-6-[2-chloro-4-(1H-pyrazol-4-yl)phenyl]-2-(2,2-dimethylpropanoyl)furo[2,3-b]pyridin-3-yl]acetamide], the “% GABA Example” value was 12%.

Turning to `CCC(=O)c1oc2nc(-c3ccc(-c4cn[nH]c4)cc3Cl)c(-c3ccc(Cl)cc3)cc2c1NC(C)=O` [Example 5, N-{5-(4-Chlorophenyl)-6-[2-chloro-4-(1H-pyrazol-4-yl)phenyl]-2-propionylfuro[2,3-b]pyridin-3-yl}acetamide], the “% GABA Example” value was 11%.

On to `CC(C)C(=O)Nc1c(C(=O)C(C)(C)C)oc2nc(-c3ccc(-c4cn[nH]c4)cc3Cl)c(-c3ccc(Cl)cc3)cc12` [Example 6, N-[5-(4-Chlorophenyl)-6-[2-chloro-4-(1H-pyrazol-4-yl)phenyl]-2-(2,2-dimethylpropanoyl)furo[2,3-b]pyridin-3-yl]-2-methylpropanamide], for which the “% GABA Example” value came out at 3%.

`CCC(=O)c1oc2nc(-c3ccc(-c4cn[nH]c4)cc3Cl)c(-c3ccc(Cl)cc3)cc2c1N` [Example 8, 1-{3-Amino-5-(4-chlorophenyl)-6-[2-chloro-4-(1H-pyrazol-4-yl)phenyl]furo[2,3-b]pyridin-2-yl}propan-1-one]: the “% GABA Example” value came out at 26%.

In the case of `Cc1c(C(=O)C(C)(C)O)oc2nc(-c3ccc(-c4cn[nH]c4)cc3Cl)c(-c3ccc(Cl)cc3)cc12` [Example 9, 1-{5-(4-Chlorophenyl)-6-[2-chloro-4-(1H-pyrazol-4-yl)phenyl]-3-methylfuro[2,3-b]pyridin-2-yl}-2-hydroxy-2-methylpropan-1-one], the “% GABA Example” value is given as 30%.

In the case of `Cc1c(C(=O)C(C)(C)C)oc2nc(-c3ccc(-c4cn[nH]c4)cc3Cl)c(-c3ccc(Cl)cc3)cc12` [Example 10, 1-{5-(4-Chlorophenyl)-6-[2-chloro-4-(1H-pyrazol-4-yl)phenyl]-3-methylfuro[2,3-b]pyridin-2-yl}-2,2-dimethylpropan-1-one], the “% GABA Example” value amounted to 9%.

Turning to `Cc1c(C(=O)CC(C)C)oc2nc(-c3ccc(-c4cn[nH]c4)cc3Cl)c(-c3ccc(Cl)cc3)cc12` [Example 12, 1-{5-(4-Chlorophenyl)-6-[2-chloro-4-(1H-pyrazol-4-yl)phenyl]-3-methylfuro[2,3-b]pyridin-2-yl}-3-methylbutan-1-one], the “% GABA Example” value was determined as 51%.

Consider `CCC(=O)c1oc2nc(-c3ccc(-c4cn[nH]c4)cc3Cl)c(-c3ccc(Cl)cc3)cc2c1NC(=O)C(C)(C)O` [Example 13, N-{5-(4-Chlorophenyl)-6-[2-chloro-4-(1H-pyrazol-4-yl)phenyl]-2-propionylfuro[2,3-b]pyridin-3-yl}-2-hydroxy-2-methylpropanamide], for which the “% GABA Example” value was 15%.

Regarding `C[C@H](O)C(=O)Nc1c(C(=O)C(C)(C)C)oc2nc(-c3ccc(-c4cn[nH]c4)cc3Cl)c(-c3ccc(Cl)cc3)cc12` [Example 14, (2S)-N-[5-(4-Chlorophenyl)-6-[2-chloro-4-(1H-pyrazol-4-yl)phenyl]-2-(2,2-dimethylpropanoyl)furo[2,3-b]pyridin-3-yl]-2-hydroxypropanamide], the “% GABA Example” value was determined as 13%.

Consider `CCC(=O)c1oc2nc(-c3ccc(-c4cn[nH]c4)cc3Cl)c(-c3ccc(Cl)cc3)cc2c1NC(=O)[C@H](C)O` [Example 15, (2S)-N-{5-(4-Chlorophenyl)-6-[2-chloro-4-(1H-pyrazol-4-yl)phenyl]-2-propionylfuro[2,3-b]pyridin-3-yl}-2-hydroxypropanamide], for which the “% GABA Example” value amounted to 13%.

On to `CC(C)(C)C(=O)c1oc2nc(-c3ccc(-c4cn[nH]c4)cc3Cl)c(-c3ccc(Cl)cc3)cc2c1NC(=O)C(C)(C)O` [Example 16, N-[5-(4-Chlorophenyl)-6-[2-chloro-4-(1H-pyrazol-4-yl)phenyl]-2-(2,2-dimethylpropanoyl)furo[2,3-b]pyridin-3-yl]-2-hydroxy-2-methylpropanamide], for which the “% GABA Example” value was found to be 11%.

For `CCC(=O)c1oc2nc(-c3ccc(-c4cn[nH]c4)cc3Cl)c(-c3ccc(Cl)cc3)cc2c1NC(=O)CO` [Example 17, N-{5-(4-Chlorophenyl)-6-[2-chloro-4-(1H-pyrazol-4-yl)phenyl]-2-propionylfuro[2,3-b]pyridin-3-yl}-2-hydroxyacetamidetrifluoroacetate (salt)], the “% GABA Example” value worked out at 36%.

On to `CC(=O)Nc1c(C(=O)C(C)(C)O)oc2nc(-c3ccc(-c4cc[nH]n4)cc3Cl)c(-c3ccc(Cl)cc3)cc12` [Example 18, N-[5-(4-Chlorophenyl)-6-[2-chloro-4-(1H-pyrazol-3-yl)phenyl]-2-(2-hydroxy-2-methylpropanoyl)furo[2,3-b]pyridin-3-yl]acetamide], for which the “% GABA Example” value is listed as 26%.

Turning to `CC(=O)Nc1c(C(=O)C(C)(C)C)oc2nc(-c3ccc(-c4cc[nH]n4)cc3Cl)c(-c3ccc(Cl)cc3)cc12` [Example 19, N-[5-(4-Chlorophenyl)-6-[2-chloro-4-(1H-pyrazol-3-yl)phenyl]-2-(2,2-dimethylpropanoyl)furo[2,3-b]pyridin-3-yl]acetamide], the “% GABA Example” value stood at 16%.

With `CC(C)(C)C(=O)c1oc2nc(-c3ccc(-c4cc[nH]n4)cc3Cl)c(-c3ccc(Cl)cc3)cc2c1C(N)=O` [Example 20, 5-(4-Chlorophenyl)-6-[2-chloro-4-(1H-pyrazol-3-yl)phenyl]-2-(2,2-dimethylpropanoyl)furo[2,3-b]pyridine-3-carboxamide], the “% GABA Example” value is reported as 13%.

Turning to `CC(C)(O)C(=O)c1oc2nc(-c3ccc(-c4cc[nH]n4)cc3Cl)c(-c3ccc(Cl)cc3)cc2c1N` [Example 21, 1-{3-Amino-5-(4-chlorophenyl)-6-[2-chloro-4-(1H-pyrazol-3-yl)phenyl]furo-[2,3-b]pyridin-2-yl}-2-hydroxy-2-methylpropan-1-one], the “% GABA Example” value is on record as 27%.

With `CC(C)C(=O)c1oc2nc(-c3ccc(-c4cc[nH]n4)cc3Cl)c(-c3ccc(Cl)cc3)cc2c1N` [Example 22, 1-{3-Amino-5-(4-chlorophenyl)-6-[2-chloro-4-(1H-pyrazol-3-yl)phenyl]furo-[2,3-b]pyridin-2-yl}-2-methylpropan-1-one], the “% GABA Example” value was determined as 18%.

Consider `Cc1c(C(=O)C(C)(C)O)oc2nc(-c3ccc(-c4cc[nH]n4)cc3Cl)c(-c3ccc(Cl)cc3)cc12` [Example 23, 1-{5-(4-Chlorophenyl)-6-[2-chloro-4-(1H-pyrazol-3-yl)phenyl]-3-methylfuro[2,3-b]pyridin-2-yl}-2-hydroxy-2-methylpropan-1-one], for which the “% GABA Example” value worked out at 24%.

For the compound `Cc1c(S(=O)(=O)C(C)(C)C)oc2nc(-c3ccc(-c4cc[nH]n4)cc3Cl)c(-c3ccc(Cl)cc3)cc12` [Example 24, 2-(Tert-butylsulfonyl)-5-(4-chlorophenyl)-6-[2-chloro-4-(1H-pyrazol-3-yl)phenyl]-3-methylfuro[2,3-b]pyridine], the “% GABA Example” value is on record as 13%.

For `Cc1c(C(=O)C(C)C)oc2nc(-c3ccc(-c4cc[nH]n4)cc3Cl)c(-c3ccc(Cl)cc3)cc12` [Example 25, 1-{5-(4-Chlorophenyl)-6-[2-chloro-4-(1H-pyrazol-3-yl)phenyl]-3-methylfuro[2,3-b]pyridin-2-yl}-2-methylpropan-1-one], the “% GABA Example” value is recorded as 35%.
